Several values for one entry are separate records, joined by “and”; a condition that tells them apart may be missing. Equal values may be shown once. Read-outs that look alike come from different tables or passages of the source.
Columns and labels:
[1] = biological target: Human Serum Albumin (HSA) (Homo sapiens, UniProt P02768); test: Fluorescence increase on addition to 4% HSA solution (HSA complex formation); format: binding
Procedure: ICG is a hydrophobic molecule that forms a tight complex with Human Serum Albumin (HSA). The fluorescence of ICG increased ˜10 fold, as expected, when it was added to a 4% HSA solution. When ICG is conjugated to a protein, it loses its ability to form tight HAS complexes, as confirmed in our experiments where the fluorescence of ICG-IgG (no dPEG) increased by only a factor of ˜2 when added to 4% HSA. We hypothesized that ICG might still be able to bind to HSA when it was bound to IgG through a dPEG12 linker.

[2] = Solubility of ICG-NHS (no dPEG); format: physicochemical; settings: 10% DMAC (our work)
Source text: Soluble in 10% DMSO (lit) or DMAC (our work)

[3] = Behaviour of unreacted reagent on spin columns in PBS (aggregation); format: physicochemical; settings: no MAG control
Source text: Reacted with MAG but couldn't separate unreacted reagent on spin columns in PBS

[4] = 10% DMSO (lit); cited from earlier work
[5] = Conjugation of ICG reagents with IgG: maximal ICG incorporation without losing the protein; format: physicochemical; settings: reaction with MAG in 10% DMAC
Source text: The maximal number of ICGs using this reagent that can be incorporated into an IgG without losing the protein is 4-5 ICG/IgG (FIG. 18). A similar number of ICGs from ICG-NHS, the reagent without dPEG, can be substituted into IgG (FIG. 19).
c. Conjugation of ICG-dPEG12-NHS with MAG (Mouse Anti-Goat IgG Antibody)
MAG reacted with different concentrations of ICG-dPEG12-NHS in 10% DMAC
Product purified over two G50 spin columns in PBS
[IgG] and ICG/IgG molar ratios determined from A (770 nm) and A (280) nm
Lose most of protein when [ICG-dPEG12-NHS] in the reaction is ≧0.2 mM
Highest incorporation: ICG/IgG˜5

Chain of Human Serum Albumin (HSA) (P02768 25-609): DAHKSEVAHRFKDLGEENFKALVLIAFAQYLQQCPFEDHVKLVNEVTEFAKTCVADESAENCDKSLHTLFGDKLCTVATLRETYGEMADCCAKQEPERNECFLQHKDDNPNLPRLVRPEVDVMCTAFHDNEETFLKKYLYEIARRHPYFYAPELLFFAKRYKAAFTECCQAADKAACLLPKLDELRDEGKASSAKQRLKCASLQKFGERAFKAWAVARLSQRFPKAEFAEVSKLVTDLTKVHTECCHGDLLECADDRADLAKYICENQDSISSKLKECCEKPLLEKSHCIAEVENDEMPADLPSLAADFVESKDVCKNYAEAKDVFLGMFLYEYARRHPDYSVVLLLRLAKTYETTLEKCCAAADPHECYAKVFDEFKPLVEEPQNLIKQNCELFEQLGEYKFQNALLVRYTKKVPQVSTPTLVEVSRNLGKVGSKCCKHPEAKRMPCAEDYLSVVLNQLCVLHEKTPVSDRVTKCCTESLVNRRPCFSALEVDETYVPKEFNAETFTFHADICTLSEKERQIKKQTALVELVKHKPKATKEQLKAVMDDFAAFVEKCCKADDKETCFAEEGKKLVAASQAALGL

CC1(C)C(/C=C/C=C/C=C/C=C2\N(CCCCS(=O)(=O)[O-])c3ccc4ccccc4c3C2(C)C)=[N+](CCCCS(=O)(=O)[O-])c2ccc3ccccc3c21.[Na+] [ICG]
increase of fluorescence when added to 4% HSA [1]: ~10 fold

CC1(C)C(/C=C/C=C/C=C/C=C2\N(CCCCS(=O)(=O)[O-])c3ccc4ccccc4c3C2(C)C)=[N+](CCCCCC(=O)ON2C(=O)CCC2=O)c2ccc3ccccc3c21 [ICG-NHS]
solubility [2]: Soluble | aggregation of unreacted reagent [3]: apparently forms aggregates | solubility [4]: Soluble

dPEG12-NHS ester)-1,1-dimethyl-benzoindoliden-hepta-1,3,5-trienyl-(1,1-dimethyl-benzoindolium butane sulfonate) [ICG-dPEG12-NHS]
maximal number of ICGs that can be incorporated into an IgG without losing the protein / highest incorporation [5]: 4-5 ICG/IgG and ~5 ICG/IgG
